The values below come from US5840697A, “Peptide inhibitors of calmodulin” (Torrey Pines Institute for Molecular Studies, priority 1996, dated 1998).

Molecules are shown by their SMILES. Square brackets hold non-standard residues; d marks the D form. Peptide text beside a SMILES is read from it.

In the first assay the target is calmodulin (Homo sapiens, UniProt P0DP23). The assay is described as follows: calcium-dependent phosphodiesterase assay (calmodulin activity). Format: biochemical. The following applies: 50 μM peptide; PDE without calmodulin = 100%, calmodulin without peptide = 0%. The method, then: In the calcium dependent phosphodiesterase assay, calmodulin can be assayed by its ability to stimulate phosphodiesterase activity as determined by a two-step assay procedure illustrated by reactions (1) and (2) below. [drawing 1]
During the first step of the assay cyclic adenosine 3'5'-monophosphate (cAMP) is incubated with calcium-activated phosphodiesterase (Cal-PDE), which hydrolyses the 3'bond producing adenosine 5'-monophosphate (5'-AMP). During the second step, 5'-AMP is quantitatively converted into adenosine and inorganic phosphate (Pi) through the action of a 5-nucleotidase. The reaction is followed by the measurement of the Pi formed by reading the absorbance at 660 nm after reacting with ammonium molybdate. The amount of Pi formed is directly related to the phosphodiesterase activity which depends on the level of activation by calmodulin.
To sample assay tubes were added the following components: assay buffer, 25 ul; CaCl2, 5 ul; 5'-nucleotidase, 7.5 ul (stock solution is 10 units/ml); calmodulin 5 units; calmodulin inhibitor peptides to obtain the desired final concentration of 50 μM. The volume was then made up to 200 ul with water. Control blanks were prepared replacing the peptides with water. The added components were thoroughly mixed and the tubes incubated at 30° C. for 10 min. […] The samples were centrifuged to remove the protein precipitate and the 50 ul of the supernatant was withdrawn for phosphate measurement. […] The absorbance of the solution were read at 660 nm using water as a blank, identified as control "Calmo."
The two controls used in the assay, one without and one with calmodulin, as indicated in FIG. 1 and Table I were as follows,: (1) PDE:
These three controls were used in the calcium-dependent phosphodiesterase assay for reproducibility of the assay.
In addition to the calcium-dependent phosphodiesterase assay data, IC50 values were determined for many of the peptides. The assay carried out for the determination in the IC50 values differed from the above screening assay by the concentration of the peptides being tested.
(3) TFP: trifluoperazine; and (4) Calmidasolium: (1-[bis-(4-chlorophenyl)methyl]-3[-2-(2,4-dichlorophenyl)-2[(2,4-dichlorophenyl)methoxy]-ethyl]-1H-imidazolium chloride. The IC50 values were calculated using sigmoidal curve software (Graphpad, ISI; San Diego, Calif.) using the % inhibition at different mixture concentrations (see protocol for determination of % inhibition).
The (L)-amino acid counterpart for five (5) of the all (D)-amino acid peptides identified from the PS-SCL were synthesized in order to study the stereoselectivity of the inhibition.
For the compound `CC[C@@H](C)[C@@H](NC(=O)[C@@H](Cc1c[nH]c2ccccc12)NC(=O)[C@@H](CC(C)C)NC(C)=O)C(=O)N[C@H](Cc1c[nH]cn1)C(=O)N[C@H](Cc1c[nH]cn1)C(=O)N[C@H](CCCNC(=N)N)C(N)=O` [Ac-(D)Leu-(D)Trp-(D)Ile-(D)His-(D)His-(D)Arg-NH2] (Ac-[dL][dW][dI][dH][dH][dR]-NH2), the inhibition at 50 µM came out at 79%.

Still in this assay, the particulars now being: Table I; assayed at 75, 50 and 12.5 μM, average of repeated assays; read-out: Average IC50.
Regarding `CC(=O)N[C@H](CC(C)C)C(=O)N[C@H](CCC(N)=O)C(=O)N[C@H](CCCNC(=N)N)C(=O)N[C@H](Cc1c[nH]cn1)C(=O)N[C@H](Cc1c[nH]cn1)C(=O)N[C@H](CCCNC(=N)N)C(N)=O` [Ac-(D)Leu-(D)Gln-(D)Arg-(D)His-(D)His-(D)Arg-NH2] (Ac-[dL][dQ][dR][dH][dH][dR]-NH2), the IC50 is 20 µM.
In the case of `CC(=O)N[C@H](CC(C)C)C(=O)N[C@H](CCC(N)=O)C(=O)N[C@H](CCCNC(=N)N)C(=O)N[C@H](Cc1c[nH]cn1)C(=O)N[C@H](Cc1c[nH]cn1)C(=O)N[C@H](Cc1c[nH]c2ccccc12)C(N)=O` [Ac-(D)Leu-(D)Gln-(D)Arg-(D)His-(D)His-(D)Trp-NH2] (Ac-[dL][dQ][dR][dH][dH][dW]-NH2), the IC50 was 25 µM.
For `CC(=O)N[C@H](CC(C)C)C(=O)N[C@H](CCC(N)=O)C(=O)N[C@H](CCCNC(=N)N)C(=O)N[C@H](Cc1c[nH]cn1)C(=O)N[C@H](CC(C)C)C(=O)N[C@H](CCCNC(=N)N)C(N)=O` [Ac-(D)Leu-(D)Gln-(D)Arg-(D)His-(D)Leu-(D)Arg-NH2] (Ac-[dL][dQ][dR][dH][dL][dR]-NH2), the half-inhibitory concentration (IC50) is 25 µM.
Consider `CC(=O)N[C@H](CC(C)C)C(=O)N[C@H](CCC(N)=O)C(=O)N[C@H](CCCNC(=N)N)C(=O)N[C@H](Cc1c[nH]cn1)C(=O)N[C@H](CC(C)C)C(=O)N[C@H](Cc1c[nH]c2ccccc12)C(N)=O` [Ac-(D)Leu-(D)Gln-(D)Arg-(D)His-(D)Leu-(D)Trp-NH2] (Ac-[dL][dQ][dR][dH][dL][dW]-NH2), for which the IC50 is 20 µM.
On the same count and under the same terms, then `CC[C@@H](C)[C@@H](NC(=O)[C@@H](CCCNC(=N)N)NC(=O)[C@@H](CCC(N)=O)NC(=O)[C@@H](CC(C)C)NC(C)=O)C(=O)N[C@H](Cc1c[nH]cn1)C(=O)N[C@H](CCCNC(=N)N)C(N)=O` [Ac-(D)Leu-(D)Gln-(D)Arg-(D)Ile-(D)His-(D)Arg-NH2] (Ac-[dL][dQ][dR][dI][dH][dR]-NH2), with 26 µM; and `CC[C@@H](C)[C@@H](NC(=O)[C@@H](CCCNC(=N)N)NC(=O)[C@@H](CCC(N)=O)NC(=O)[C@@H](CC(C)C)NC(C)=O)C(=O)N[C@H](Cc1c[nH]cn1)C(=O)N[C@H](Cc1c[nH]c2ccccc12)C(N)=O` [Ac-(D)Leu-(D)Gln-(D)Arg-(D)Ile-(D)His-(D)Trp-NH2] (Ac-[dL][dQ][dR][dI][dH][dW]-NH2), with 19 µM.
Same read-out and setting: then `CC[C@@H](C)[C@@H](NC(=O)[C@@H](CCCNC(=N)N)NC(=O)[C@@H](CCC(N)=O)NC(=O)[C@@H](CC(C)C)NC(C)=O)C(=O)N[C@H](CC(C)C)C(=O)N[C@H](CCCNC(=N)N)C(N)=O` [Ac-(D)Leu-(D)Gln-(D)Arg-(D)Ile-(D)Leu-(D)Arg-NH2] (Ac-[dL][dQ][dR][dI][dL][dR]-NH2), with 35 µM; and `CC[C@@H](C)[C@@H](NC(=O)[C@@H](CCCNC(=N)N)NC(=O)[C@@H](CCC(N)=O)NC(=O)[C@@H](CC(C)C)NC(C)=O)C(=O)N[C@H](CC(C)C)C(=O)N[C@H](Cc1c[nH]c2ccccc12)C(N)=O` [Ac-(D)Leu-(D)Gln-(D)Arg-(D)Ile-(D)Leu-(D)Trp-NH2] (Ac-[dL][dQ][dR][dI][dL][dW]-NH2), with 24 µM; and `CC[C@@H](C)[C@@H](NC(=O)[C@@H](CCC(N)=O)NC(=O)[C@@H](CC(C)C)NC(C)=O)C(=O)N[C@H](Cc1c[nH]cn1)C(=O)N[C@H](Cc1c[nH]cn1)C(=O)N[C@H](CCCNC(=N)N)C(N)=O` [Ac-(D)Leu-(D)Gln-(D)Ile-(D)His-(D)His-(D)Arg-NH2] (Ac-[dL][dQ][dI][dH][dH][dR]-NH2), with 20 µM.
`CC[C@@H](C)[C@@H](NC(=O)[C@@H](CCC(N)=O)NC(=O)[C@@H](CC(C)C)NC(C)=O)C(=O)N[C@H](Cc1c[nH]cn1)C(=O)N[C@H](Cc1c[nH]cn1)C(=O)N[C@H](Cc1c[nH]c2ccccc12)C(N)=O` [Ac-(D)Leu-(D)Gln-(D)Ile-(D)His-(D)His-(D)Trp-NH2] (Ac-[dL][dQ][dI][dH][dH][dW]-NH2): the IC50 turned out to be 27 µM.
As for `CC[C@@H](C)[C@@H](NC(=O)[C@@H](CCC(N)=O)NC(=O)[C@@H](CC(C)C)NC(C)=O)C(=O)N[C@H](Cc1c[nH]cn1)C(=O)N[C@H](CC(C)C)C(=O)N[C@H](Cc1c[nH]c2ccccc12)C(N)=O` [Ac-(D)Leu-(D)Gln-(D)Ile-(D)His-(D)Leu-(D)Trp-NH2] (Ac-[dL][dQ][dI][dH][dL][dW]-NH2), the IC50 is 30 µM.
Same read-out and setting: then `CC[C@@H](C)[C@@H](NC(=O)[C@@H](CCC(N)=O)NC(=O)[C@@H](CC(C)C)NC(C)=O)C(=O)N[C@@H](C(=O)N[C@H](Cc1c[nH]cn1)C(=O)N[C@H](CCCNC(=N)N)C(N)=O)[C@H](C)CC` [Ac-(D)Leu-(D)Gln-(D)Ile-(D)Ile-(D)His-(D)Arg-NH2] (Ac-[dL][dQ][dI][dI][dH][dR]-NH2), with 35 µM.
Still for that read-out and setting: in the case of `CC[C@@H](C)[C@@H](NC(=O)[C@@H](CCC(N)=O)NC(=O)[C@@H](CC(C)C)NC(C)=O)C(=O)N[C@@H](C(=O)N[C@H](Cc1c[nH]cn1)C(=O)N[C@H](Cc1c[nH]c2ccccc12)C(N)=O)[C@H](C)CC` [Ac-(D)Leu-(D)Gln-(D)Ile-(D)Ile-(D)His-(D)Trp-NH2] (Ac-[dL][dQ][dI][dI][dH][dW]-NH2) it was 17 µM; in that of `CC[C@@H](C)[C@@H](NC(=O)[C@@H](CCC(N)=O)NC(=O)[C@@H](CC(C)C)NC(C)=O)C(=O)N[C@@H](C(=O)N[C@H](CC(C)C)C(=O)N[C@H](CCCNC(=N)N)C(N)=O)[C@H](C)CC` [Ac-(D)Leu-(D)Gln-(D)Ile-(D)Ile-(D)Leu-(D)Arg-NH2] (Ac-[dL][dQ][dI][dI][dL][dR]-NH2), 20 µM.
As for `CC(=O)N[C@H](CC(C)C)C(=O)N[C@H](Cc1c[nH]c2ccccc12)C(=O)N[C@H](CCCNC(=N)N)C(=O)N[C@H](Cc1c[nH]cn1)C(=O)N[C@H](Cc1c[nH]cn1)C(=O)N[C@H](CCCNC(=N)N)C(N)=O` [Ac-(D)Leu-(D)Trp-(D)Arg-(D)His-(D)His-(D)Arg-NH2] (Ac-[dL][dW][dR][dH][dH][dR]-NH2), the half-inhibitory concentration (IC50) was found to be 8.1 µM.
On the same count and under the same terms, in the case of `CC(=O)N[C@H](CC(C)C)C(=O)N[C@H](Cc1c[nH]c2ccccc12)C(=O)N[C@H](CCCNC(=N)N)C(=O)N[C@H](Cc1c[nH]cn1)C(=O)N[C@H](CC(C)C)C(=O)N[C@H](CCCNC(=N)N)C(N)=O` [Ac-(D)Leu-(D)Trp-(D)Arg-(D)His-(D)Leu-(D)Arg-NH2] (Ac-[dL][dW][dR][dH][dL][dR]-NH2) it was 16 µM; in that of `CC[C@@H](C)[C@@H](NC(=O)[C@@H](CCCNC(=N)N)NC(=O)[C@@H](Cc1c[nH]c2ccccc12)NC(=O)[C@@H](CC(C)C)NC(C)=O)C(=O)N[C@H](Cc1c[nH]cn1)C(=O)N[C@H](CCCNC(=N)N)C(N)=O` [Ac-(D)Leu-(D)Trp-(D)Arg-(D)Ile-(D)His-(D)Arg-NH2] (Ac-[dL][dW][dR][dI][dH][dR]-NH2), 7.5 µM.
Take `CC[C@@H](C)[C@@H](NC(=O)[C@@H](Cc1c[nH]c2ccccc12)NC(=O)[C@@H](CC(C)C)NC(C)=O)C(=O)N[C@H](Cc1c[nH]cn1)C(=O)N[C@H](Cc1c[nH]cn1)C(=O)N[C@H](CCCNC(=N)N)C(N)=O` [Ac-(D)Leu-(D)Trp-(D)Ile-(D)His-(D)His-(D)Arg-NH2] (Ac-[dL][dW][dI][dH][dH][dR]-NH2): the IC50 amounted to 20 µM.
Same read-out and setting: in the case of `CC[C@@H](C)[C@@H](NC(=O)[C@@H](Cc1c[nH]c2ccccc12)NC(=O)[C@@H](CC(C)C)NC(C)=O)C(=O)N[C@H](Cc1c[nH]cn1)C(=O)N[C@H](CC(C)C)C(=O)N[C@H](CCCNC(=N)N)C(N)=O` [Ac-(D)Leu-(D)Trp-(D)Ile-(D)His-(D)Leu-(D)Arg-NH2] (Ac-[dL][dW][dI][dH][dL][dR]-NH2) it was 7.8 µM.

Usually inhibition stands for the share of the control response that was lost under treatment. In general, IC50 refers to the concentration that gives 50% inhibition.
